pIC50: −log10 of the molar value. Where two headings read alike, the source gives them in different places. Positions of bridges follow the written chain, without caps; N, C: chain ends. Non-standard residues stand in square brackets, D forms with d. Residues, ends and D or L forms follow the SMILES beside them. Trp(1-Me) = Cn1cc(C[C@H](N)C(=O)O)c2ccccc21; 1Nal = N[C@@H](Cc1cccc2ccccc12)C(=O)O; Sar = CNCC(=O)O
Experiments:
[1] = Solubility test at 10 mg/mL (visual inspection and light scattering); type: physicochemical; details: for Solubility, Condition 1: Acetate pH 4; for Solubility, Condition 2: Acetate pH 5; for Solubility, Condition 3: Phosphate pH 6; for Solubility, Condition 4: Phosphate pH 7; for Solubility, Condition 5: Phosphate pH 7.5
Protocol: The solubility of compounds was assessed by measuring light scattering over a pH interval from pH 4 to pH 7.5.
Compounds were dissolved in a stock solution of 20 mg/mL in H2O at pH 2.5 or pH 10. These stock solutions were diluted 1:1 with 200 mM buffered solution to reach a final solution of 10 mg/mL compound in 100 mM buffer. The 5 investigated conditions were (1) acetate pH 4.0, (2) acetate pH 5.0, (3) phosphate pH 6.0, (4) phosphate pH 7 and (5) phosphate pH 7.5.
Visual inspection included manually checking the 96 well plate for wells that are clear or non-clear. In addition to this a picture of the 96 well plate is taken.
Absorbance was measured at four wavelengths: 280 nm, 325 nm, 340 nm and 360 nm in an UV transparent 96 well microplate in a SpectraMax 190 microplate reader (Molecular Devices).
The criteria for this was a combination of visual inspection and light scattering not exceeding 0.1 AU, where values below 0.1 AU are good in visually clear samples.

[2] = tested on: classical complement pathway; assay: In vitro haemolysis assay (inhibition of classical complement pathway); type: cell-based, human; details: human serum, sensitized sheep red blood cells
Procedure, shortened: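 Compound dilutions preincubated 15 min at room temperature with diluted human serum (titrated per batch for 70-90% maximal haemolysis), then antibody-sensitized sheep RBC (10^7/well) added for 30 min at 37 °C in Tris/casein buffer, pH 7.4. Stopped with EDTA; haemolysis read at 405 nm; IC50 by 4PL fit.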

[3] = Table 3, given as upper bounds, read-out: IC50, inhibition of hemolysis

| Structure (SMILES) | Solubility, Condition 1 [1] | Solubility, Condition 2 [1] | Solubility, Condition 3 [1] | Solubility, Condition 4 [1] | Solubility, Condition 5 [1] | pIC50 [2, 3] | pIC50 ([2]; Table 4, valine 3 vs isoleucine 3 pairs, read-out: CP hemolysis IC50) |
| --- | --- | --- | --- | --- | --- | --- | --- |
| CC[C@H](C)[C@@H]1NC(=O)[C@@H](NC(=O)[C@@H](NC(=O)[C@H](CCC(=O)O)NC(=O)[C@H](CO)NC(=O)[C@H](CCC(=O)O)NC(C)=O)[C@@H](C)CC)CSSC[C@@H](C(=O)N[C@H](C(N)=O)[C@@H](C)O)NC(=O)[C@H](CCCNC(=N)N)NC(=O)[C@H](Cc2c[nH]cn2)NC(=O)[C@H](CCC(=O)O)NC(=O)CNC(=O)[C@H](Cc2c[nH]c3ccccc23)NC(=O)[C@H](CC(=O)O)NC(=O)[C@H](CCC(N)=O)NC(=O)[C@H](Cc2c[nH]c3ccccc23)NC1=O [Compound 31] (Ac-ESEICIWQDWGEHRCT-NH2; disulfide 5-15) | + (“+” denotes solubility at the given condition, as determined by UV absorbance being less than 0.1 AU at 340 nm and the sample being clear when manually inspected) | + (“+” denotes solubility at the given condition, as determined by UV absorbance being less than 0.1 AU at 340 nm and the sample being clear when manually inspected) | + (“+” denotes solubility at the given condition, as determined by UV absorbance being less than 0.1 AU at 340 nm and the sample being clear when manually inspected) | + (“+” denotes solubility at the given condition, as determined by UV absorbance being less than 0.1 AU at 340 nm and the sample being clear when manually inspected) | + (“+” denotes solubility at the given condition, as determined by UV absorbance being less than 0.1 AU at 340 nm and the sample being clear when manually inspected) | > 7.00 |  |
| CC[C@H](C)[C@@H]1NC(=O)[C@@H](NC(=O)[C@H](Cc2ccccc2)NC(=O)[C@H](CCC(=O)O)NC(=O)[C@H](CO)NC(C)=O)CSSC[C@@H](C(=O)N(C)CC(=O)N[C@@H](CCC(=O)O)C(=O)N[C@@H](C)C(N)=O)NC(=O)[C@H](CCCNC(=N)N)NC(=O)[C@H](Cc2c[nH]cn2)NC(=O)[C@H](CCC(=O)O)NC(=O)CN(C)C(=O)[C@H](Cc2c[nH]c3ccccc23)NC(=O)[C@H](CC(=O)O)NC(=O)[C@H](CCC(N)=O)NC(=O)[C@H](Cc2cn(C)c3ccccc23)NC1=O [Compound 76, Ac-SEFC(1)I[1-Me-Trp]QDW[Sar]EHRC(1)[Sar]EA-NH2] (Ac-SEFCI[Trp(1-Me)]QDW[Sar]EHRC[Sar]EA-NH2; disulfide 4-14) | − (“−” denotes lack of solubility at the given condition, as UV absorbance at 340 nm exceeds 0.1 AU and/or it is visibly turbid or contains particles) | − (“−” denotes lack of solubility at the given condition, as UV absorbance at 340 nm exceeds 0.1 AU and/or it is visibly turbid or contains particles) | + (“+” denotes solubility at the given condition, as determined by UV absorbance being less than 0.1 AU at 340 nm and the sample being clear when manually inspected) | + (“+” denotes solubility at the given condition, as determined by UV absorbance being less than 0.1 AU at 340 nm and the sample being clear when manually inspected) | + (“+” denotes solubility at the given condition, as determined by UV absorbance being less than 0.1 AU at 340 nm and the sample being clear when manually inspected) | > 7.00 |  |
| CC[C@H](C)[C@@H]1NC(=O)[C@@H](NC(=O)[C@H](Cc2ccccc2)NC(C)=O)CSSC[C@@H](C(=O)N[C@H](C(=O)NCC(=O)N[C@@H](C)C(=O)N[C@@H](CCC(=O)O)C(=O)N[C@@H](CO)C(N)=O)[C@@H](C)O)NC(=O)[C@H](CCCNC(=N)N)NC(=O)[C@H](Cc2c[nH]cn2)NC(=O)[C@H](CCC(=O)O)NC(=O)CNC(=O)[C@H](Cc2c[nH]c3ccccc23)NC(=O)[C@H](CC(=O)O)NC(=O)[C@H](CCC(N)=O)NC(=O)[C@H](Cc2cccc3ccccc23)NC1=O [Compound 63] (Ac-FCI[1Nal]QDWGEHRCTGAES-NH2; disulfide 2-12) | − (“−” denotes lack of solubility at the given condition, as UV absorbance at 340 nm exceeds 0.1 AU and/or it is visibly turbid or contains particles) | − (“−” denotes lack of solubility at the given condition, as UV absorbance at 340 nm exceeds 0.1 AU and/or it is visibly turbid or contains particles) | + (“+” denotes solubility at the given condition, as determined by UV absorbance being less than 0.1 AU at 340 nm and the sample being clear when manually inspected) | + (“+” denotes solubility at the given condition, as determined by UV absorbance being less than 0.1 AU at 340 nm and the sample being clear when manually inspected) | + (“+” denotes solubility at the given condition, as determined by UV absorbance being less than 0.1 AU at 340 nm and the sample being clear when manually inspected) | > 7.00 |  |
| CC[C@H](C)[C@@H]1NC(=O)[C@@H](NC(=O)[C@@H](NC(=O)[C@H](CCC(=O)O)NC(=O)[C@H](CO)NC(=O)[C@H](CCC(=O)O)NC(C)=O)[C@@H](C)CC)CSSC[C@@H](C(=O)N[C@@H](CCC(=O)O)C(=O)NCC(=O)N[C@@H](CCC(=O)O)C(N)=O)NC(=O)[C@H](CCCNC(=N)N)NC(=O)[C@H](Cc2c[nH]cn2)NC(=O)[C@H](CCC(=O)O)NC(=O)CNC(=O)[C@H](Cc2c[nH]c3ccccc23)NC(=O)[C@H](CC(=O)O)NC(=O)[C@H](CCC(N)=O)NC(=O)[C@H](Cc2c[nH]c3ccccc23)NC1=O [Compound 36] (Ac-ESEICIWQDWGEHRCEGE-NH2; disulfide 5-15) | − (“−” denotes lack of solubility at the given condition, as UV absorbance at 340 nm exceeds 0.1 AU and/or it is visibly turbid or contains particles) | − (“−” denotes lack of solubility at the given condition, as UV absorbance at 340 nm exceeds 0.1 AU and/or it is visibly turbid or contains particles) | − (“−” denotes lack of solubility at the given condition, as UV absorbance at 340 nm exceeds 0.1 AU and/or it is visibly turbid or contains particles) | + (“+” denotes solubility at the given condition, as determined by UV absorbance being less than 0.1 AU at 340 nm and the sample being clear when manually inspected) | + (“+” denotes solubility at the given condition, as determined by UV absorbance being less than 0.1 AU at 340 nm and the sample being clear when manually inspected) | > 6.60 |  |
| CC[C@H](C)[C@H](NC(C)=O)C(=O)N[C@H]1CSSC[C@@H](C(=O)N[C@H](C(N)=O)[C@@H](C)O)NC(=O)[C@H](CO)NC(=O)[C@H](Cc2c[nH]cn2)NC(=O)[C@H](CCC(=O)O)NC(=O)CNC(=O)[C@H](Cc2c[nH]c3ccccc23)NC(=O)[C@H](CC(=O)O)NC(=O)[C@H](CCC(N)=O)NC(=O)[C@H](Cc2c[nH]c3ccccc23)NC(=O)[C@H](C(C)C)NC1=O [F, reference compound] (Ac-ICVWQDWGEHSCT-NH2; disulfide 2-12) |  |  |  |  |  |  | 6.27 |
